System: immature dendritic cells
Assay: Cytokine production in immature dendritic cells
Type: cell-based
Details: MRX518 10^7/ml, LPS 100 ng/ml, compared to the negative control, FIGS. 4a-d
Experimental: A monocyte population was isolated from peripheral blood mononuclear cells (PBMCs). The monocyte cells were subsequently differentiated into immature dendritic cells. The immature dendritic cells were plated out at 200,000 cells/well and incubated with MRX518 at a final concentration of 10^7/ml, with the optional addition of LPS at a final concentration of 100 ng/ml. The negative control involved incubating the cells with RPMI media alone and positive controls incubated the cells with LPS at a final concentration of 100 ng/ml. The cytokine content of the cells was then analysed.

lipopolysaccharide [LPS]
level of IL-6: increase | level of TNF-α: increase

Source: patent US20230277602A1, “COMBINATION THERAPY FOR TREATING OR PREVENTING CANCER” (4D Pharma Research Limited, priority 2018, published 2023)
